Experimental data: article PMC4893804 (Journal of medicinal chemistry, 2015)
Read-outs that look alike come from different tables or passages of the source.

Experiments:
[1] = biological target: HIV-1 RT (Human immunodeficiency virus type 1 group M subtype B, UniProt P03366); test: HIV-1 reverse transcriptase assay with homopolymeric template/primers; format: biochemical
[2] = biological target: HCMV DNA polymerase (UL54) (Human cytomegalovirus, UniProt P08546); test: Enzyme assay with HCMV DNA polymerase; format: biochemical; settings: for superior activity against HCMV DNA polymerase compared to thymine-α-CNP: ratio vs thymine-α-CNP; for IC50: activated calf thymus DNA, [3H]dTTP
Sequence of HCMV DNA polymerase (UL54) (P08546 whole entry): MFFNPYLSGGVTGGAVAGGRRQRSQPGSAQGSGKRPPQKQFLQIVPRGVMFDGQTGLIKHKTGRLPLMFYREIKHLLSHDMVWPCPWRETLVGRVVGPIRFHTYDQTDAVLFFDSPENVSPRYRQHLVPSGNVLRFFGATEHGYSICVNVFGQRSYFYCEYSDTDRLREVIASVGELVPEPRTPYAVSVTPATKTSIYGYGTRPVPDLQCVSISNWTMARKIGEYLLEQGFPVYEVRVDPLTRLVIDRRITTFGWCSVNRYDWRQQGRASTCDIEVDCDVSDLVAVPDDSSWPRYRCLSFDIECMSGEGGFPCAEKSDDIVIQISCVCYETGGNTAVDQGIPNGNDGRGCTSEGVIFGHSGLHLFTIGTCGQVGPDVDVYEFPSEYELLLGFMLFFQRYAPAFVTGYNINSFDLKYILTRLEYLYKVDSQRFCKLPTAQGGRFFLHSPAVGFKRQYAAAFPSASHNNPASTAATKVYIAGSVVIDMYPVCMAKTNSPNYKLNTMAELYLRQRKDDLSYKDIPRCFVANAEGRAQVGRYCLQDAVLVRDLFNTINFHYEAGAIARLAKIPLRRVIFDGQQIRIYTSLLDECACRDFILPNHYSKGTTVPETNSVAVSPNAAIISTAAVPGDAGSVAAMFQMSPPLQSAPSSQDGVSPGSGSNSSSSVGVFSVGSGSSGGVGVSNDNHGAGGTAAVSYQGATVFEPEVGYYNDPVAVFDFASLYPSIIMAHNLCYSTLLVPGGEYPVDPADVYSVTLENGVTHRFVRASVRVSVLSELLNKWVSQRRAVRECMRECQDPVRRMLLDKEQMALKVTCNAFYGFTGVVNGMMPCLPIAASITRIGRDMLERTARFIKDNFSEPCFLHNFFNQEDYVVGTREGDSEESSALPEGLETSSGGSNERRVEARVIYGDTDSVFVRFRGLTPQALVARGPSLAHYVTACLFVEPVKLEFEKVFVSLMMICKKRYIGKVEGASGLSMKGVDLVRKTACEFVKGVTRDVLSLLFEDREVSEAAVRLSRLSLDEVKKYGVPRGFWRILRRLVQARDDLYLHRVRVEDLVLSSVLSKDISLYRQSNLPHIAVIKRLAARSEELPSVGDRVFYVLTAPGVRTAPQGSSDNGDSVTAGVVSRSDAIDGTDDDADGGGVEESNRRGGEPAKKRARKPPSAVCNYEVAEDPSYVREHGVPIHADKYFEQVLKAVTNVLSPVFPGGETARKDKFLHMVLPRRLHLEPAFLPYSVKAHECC

[3] = biological target: HSV-1 DNA polymerase (Human herpesvirus 1, UniProt P04293); test: Enzyme assay with HSV-1 DNA polymerase; format: biochemical
Sequence of HSV-1 DNA polymerase (P04293 whole entry): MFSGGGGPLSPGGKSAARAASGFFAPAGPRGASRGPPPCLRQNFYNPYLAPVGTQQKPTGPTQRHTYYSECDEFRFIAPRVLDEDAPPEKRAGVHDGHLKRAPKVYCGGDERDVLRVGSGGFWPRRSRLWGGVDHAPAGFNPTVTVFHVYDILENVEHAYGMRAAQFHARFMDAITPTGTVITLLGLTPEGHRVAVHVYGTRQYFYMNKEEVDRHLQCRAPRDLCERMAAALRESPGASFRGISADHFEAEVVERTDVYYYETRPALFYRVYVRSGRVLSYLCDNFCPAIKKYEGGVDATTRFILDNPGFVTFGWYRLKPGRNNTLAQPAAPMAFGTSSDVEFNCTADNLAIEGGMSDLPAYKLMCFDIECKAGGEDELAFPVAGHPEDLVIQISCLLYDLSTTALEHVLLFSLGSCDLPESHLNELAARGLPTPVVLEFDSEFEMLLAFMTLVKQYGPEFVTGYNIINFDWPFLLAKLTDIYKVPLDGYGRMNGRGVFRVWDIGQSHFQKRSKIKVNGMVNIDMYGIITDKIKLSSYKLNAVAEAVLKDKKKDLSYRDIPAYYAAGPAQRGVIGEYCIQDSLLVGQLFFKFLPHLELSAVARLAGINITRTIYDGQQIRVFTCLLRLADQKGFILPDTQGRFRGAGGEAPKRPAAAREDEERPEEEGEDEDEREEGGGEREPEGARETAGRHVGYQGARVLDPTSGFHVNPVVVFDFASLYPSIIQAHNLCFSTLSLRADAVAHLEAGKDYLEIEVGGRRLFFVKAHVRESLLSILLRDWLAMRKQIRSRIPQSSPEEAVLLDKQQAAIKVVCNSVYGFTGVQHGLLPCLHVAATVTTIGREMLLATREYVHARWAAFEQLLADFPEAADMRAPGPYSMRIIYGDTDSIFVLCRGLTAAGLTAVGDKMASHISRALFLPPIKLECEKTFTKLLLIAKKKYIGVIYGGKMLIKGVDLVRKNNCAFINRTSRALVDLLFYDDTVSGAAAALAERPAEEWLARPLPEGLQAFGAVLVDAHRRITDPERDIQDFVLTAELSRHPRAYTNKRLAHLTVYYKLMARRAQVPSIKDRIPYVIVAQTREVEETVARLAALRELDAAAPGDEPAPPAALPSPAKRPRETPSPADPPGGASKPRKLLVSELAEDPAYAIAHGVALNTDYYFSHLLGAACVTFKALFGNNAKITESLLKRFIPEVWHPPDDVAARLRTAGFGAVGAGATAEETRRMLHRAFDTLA

[4] = biological target: VZV DNA polymerase (Varicella-zoster virus, UniProt P09252); test: Enzyme assay with VZV DNA polymerase; format: biochemical
Sequence of VZV DNA polymerase (P09252 whole entry): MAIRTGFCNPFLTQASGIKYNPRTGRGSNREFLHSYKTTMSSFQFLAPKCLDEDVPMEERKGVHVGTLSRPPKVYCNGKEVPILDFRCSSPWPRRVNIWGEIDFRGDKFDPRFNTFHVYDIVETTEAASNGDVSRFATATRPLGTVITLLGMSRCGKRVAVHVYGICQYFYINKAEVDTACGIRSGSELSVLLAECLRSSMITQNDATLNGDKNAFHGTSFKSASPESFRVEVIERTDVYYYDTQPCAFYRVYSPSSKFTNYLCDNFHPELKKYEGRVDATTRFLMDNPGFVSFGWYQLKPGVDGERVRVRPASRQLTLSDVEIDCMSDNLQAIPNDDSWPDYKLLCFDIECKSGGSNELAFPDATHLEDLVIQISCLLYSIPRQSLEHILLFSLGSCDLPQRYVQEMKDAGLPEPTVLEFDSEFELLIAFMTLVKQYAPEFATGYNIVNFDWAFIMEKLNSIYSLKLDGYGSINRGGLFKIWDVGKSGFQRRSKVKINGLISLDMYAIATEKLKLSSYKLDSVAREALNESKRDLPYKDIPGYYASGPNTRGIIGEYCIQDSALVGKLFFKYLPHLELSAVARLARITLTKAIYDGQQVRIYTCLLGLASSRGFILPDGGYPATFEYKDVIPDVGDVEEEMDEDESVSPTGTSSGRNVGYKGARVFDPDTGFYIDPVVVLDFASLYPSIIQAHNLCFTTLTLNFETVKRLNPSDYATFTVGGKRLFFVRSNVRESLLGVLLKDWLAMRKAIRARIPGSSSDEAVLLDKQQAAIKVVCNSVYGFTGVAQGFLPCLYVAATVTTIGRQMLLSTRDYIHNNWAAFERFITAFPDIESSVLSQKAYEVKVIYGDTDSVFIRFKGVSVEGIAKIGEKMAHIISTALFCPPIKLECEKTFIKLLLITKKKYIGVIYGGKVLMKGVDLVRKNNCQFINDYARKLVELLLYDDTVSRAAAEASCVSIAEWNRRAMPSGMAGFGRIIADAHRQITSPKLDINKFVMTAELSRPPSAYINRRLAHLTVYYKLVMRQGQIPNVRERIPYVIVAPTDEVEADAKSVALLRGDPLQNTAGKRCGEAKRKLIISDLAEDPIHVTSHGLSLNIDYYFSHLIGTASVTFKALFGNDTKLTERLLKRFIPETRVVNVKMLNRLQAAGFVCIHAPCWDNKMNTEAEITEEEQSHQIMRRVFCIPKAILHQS

[5] = biological target: T1, Human DNA Pol α (Homo sapiens, UniProt P09884); test: Enzyme assay with human DNA polymerase α; format: biochemical
T1 sequence (P09884 1-1462): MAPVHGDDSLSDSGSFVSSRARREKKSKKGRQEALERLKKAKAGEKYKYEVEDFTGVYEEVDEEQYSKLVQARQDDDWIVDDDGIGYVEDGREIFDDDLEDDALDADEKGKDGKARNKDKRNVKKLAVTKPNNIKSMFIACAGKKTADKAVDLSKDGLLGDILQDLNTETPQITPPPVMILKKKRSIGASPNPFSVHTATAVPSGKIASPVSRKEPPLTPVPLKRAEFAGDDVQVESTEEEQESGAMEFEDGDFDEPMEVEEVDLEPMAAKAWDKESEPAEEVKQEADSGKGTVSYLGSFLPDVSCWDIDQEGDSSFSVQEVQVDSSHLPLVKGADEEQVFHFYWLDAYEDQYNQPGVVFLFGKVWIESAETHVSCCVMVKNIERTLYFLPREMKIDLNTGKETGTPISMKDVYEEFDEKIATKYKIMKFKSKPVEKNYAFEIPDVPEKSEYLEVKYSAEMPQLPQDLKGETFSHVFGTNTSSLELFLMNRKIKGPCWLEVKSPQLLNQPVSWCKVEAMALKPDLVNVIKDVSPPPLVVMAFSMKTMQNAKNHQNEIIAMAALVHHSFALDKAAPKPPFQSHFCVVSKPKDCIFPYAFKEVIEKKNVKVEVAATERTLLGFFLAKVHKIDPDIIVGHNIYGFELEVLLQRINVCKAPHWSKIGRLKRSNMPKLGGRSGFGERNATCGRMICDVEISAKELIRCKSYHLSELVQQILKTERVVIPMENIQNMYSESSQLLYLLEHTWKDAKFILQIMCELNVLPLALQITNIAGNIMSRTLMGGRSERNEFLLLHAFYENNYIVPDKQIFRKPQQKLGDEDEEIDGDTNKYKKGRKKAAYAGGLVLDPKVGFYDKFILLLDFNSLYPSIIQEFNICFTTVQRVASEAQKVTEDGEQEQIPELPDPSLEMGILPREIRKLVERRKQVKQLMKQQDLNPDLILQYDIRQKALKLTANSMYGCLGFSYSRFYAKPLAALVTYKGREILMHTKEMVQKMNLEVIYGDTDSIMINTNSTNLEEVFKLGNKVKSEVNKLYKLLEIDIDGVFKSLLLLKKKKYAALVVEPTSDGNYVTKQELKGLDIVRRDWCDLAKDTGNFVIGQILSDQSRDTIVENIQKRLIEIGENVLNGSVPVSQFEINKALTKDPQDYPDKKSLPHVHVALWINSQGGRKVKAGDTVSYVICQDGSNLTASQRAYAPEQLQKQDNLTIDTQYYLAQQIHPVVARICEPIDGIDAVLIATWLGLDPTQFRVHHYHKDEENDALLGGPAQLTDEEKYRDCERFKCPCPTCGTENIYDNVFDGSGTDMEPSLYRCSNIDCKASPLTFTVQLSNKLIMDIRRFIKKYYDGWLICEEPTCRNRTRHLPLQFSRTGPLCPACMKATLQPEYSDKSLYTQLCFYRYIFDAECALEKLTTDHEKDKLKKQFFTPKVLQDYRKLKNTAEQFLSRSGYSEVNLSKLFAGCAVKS

[6] = biological target: Human DNA Pol β (Homo sapiens, UniProt P06746); test: Enzyme assay with human DNA polymerase β; format: biochemical
[7] = biological target: M184I HIV-1 RT (Human immunodeficiency virus type 1 group M subtype B, UniProt P03366, M783I); test: Mutant HIV-1 RT assay
[8] = biological target: Y115F HIV-1 RT (Human immunodeficiency virus type 1 group M subtype B, UniProt P03366, Y714F); test: Mutant HIV-1 RT assay
[9] = read-out: IC50 HIV-1 RT, poly rA.dT template/primer, [3H]dTTP
[10] = read-out: IC50 HSV-1 DNA Pol, activated calf thymus DNA, [3H]dTTP
[11] = read-out: IC50 VZV DNA Pol, poly dA.oligo dT, [3H]dTTP
[12] = read-out: IC50 Human DNA Pol α, activated calf thymus DNA, [3H]dTTP
[13] = read-out: IC50 Human DNA Pol β, activated calf thymus DNA, [3H]dTTP
[14] = IC50 HIV-1 RT Poly rA.dT ([3H]dTTP), Table 7, Poly rA.dT, [3H]dTTP
[15] = IC50 HIV-1 RT Poly rC.dG ([3H]dGTP), Poly rC.dG, [3H]dGTP
[16] = IC50 HIV-1 RT Poly rI.dC ([3H]dCTP), Poly rI.dC, [3H]dCTP
[17] = IC50 HIV-1 RT Poly rU.dA ([3H]dATP), Poly rU.dA, [3H]dATP
[18] = IC50 HIV-1 RT, poly rA.dT template/primer, [3H]dTTP
[19] = IC50 Wild-type HIV-1 RT, Table 8, wild-type RT
[20] = read-out: IC50 HIV-1 RT Poly rA.dT ([3H]dTTP), Table 7, Poly rA.dT, [3H]dTTP
[21] = read-out: IC50 HIV-1 RT Poly rC.dG ([3H]dGTP), Poly rC.dG, [3H]dGTP
[22] = read-out: IC50 HIV-1 RT Poly rI.dC ([3H]dCTP), Poly rI.dC, [3H]dCTP
[23] = read-out: IC50 HIV-1 RT Poly rU.dA ([3H]dATP), Poly rU.dA, [3H]dATP

Compound | IC50 [1, 9] | IC50 ([2]; read-out: IC50 HCMV DNA Pol) | IC50 [3, 10] | IC50 [4, 11] | IC50 [5, 12] | IC50 [6, 13] | IC50 [1, 18] | IC50 ([2]; IC50 HCMV DNA Pol) | IC50 [3] | IC50 [4] | IC50 [5] | IC50 [6] | further results
Cc1cn(C[C@H]2C[C@H]2COC(C(=O)O)P(=O)(O)O)c(=O)[nH]c1=O (relative stereo) [Compound 6b] | 440 ± 85 µM | 4.6 ± 0.2 µM | 36 ± 12 µM | 12 ± 3 µM | 183 ± 8 µM | 390 ± 127 µM |  |  |  |  |  |  | superior activity against HCMV DNA polymerase compared to thymine-α-CNP [2]: 8- to 13 fold
Cc1cn(C[C@H]2CCCC[C@H]2COC(C(=O)O)P(=O)(O)O)c(=O)[nH]c1=O (relative stereo) [Compound 6e] | ≥ 500 µM | 4 µM | 8.6 ± 6.6 µM | 16 ± 1 µM | 69 ± 21 µM | > 500 µM |  |  |  |  |  |  | superior activity against HCMV DNA polymerase compared to thymine-α-CNP [2]: 8- to 13 fold
Nc1nc2c(ncn2C/C=C\COC(C(=O)O)P(=O)(O)O)c(=O)[nH]1 (stereo not drawn) [Compound 6l, 2-Cis-(4-(2-amino-6-oxo-1H-purin-9(6H)-yl)but-2-enyloxy)-2-phosphonoacetic acid] |  |  |  |  |  |  | ≥ 500 µM | 3.6 ± 0.6 µM | 2.1 ± 2.3 µM | 2.9 µM | 365 ± 91 µM | > 500 µM | IC50 [1, 14]: ≥ 500 µM; IC50 [1, 15]: > 500 µM; IC50 [1, 16]: > 500 µM; IC50 [1, 17]: 369 ± 48 µM; IC50 [1, 19]: ≥ 1250 µM; IC50 [7]: > 1250 µM; IC50 [8]: ≥ 1250 µM
O=c1[nH]c(=O)n([C@H]2C[C@H](O)[C@@H](COP(=O)(O)OP(=O)(O)OP(=O)(O)O)O2)cc1/C=C/Br [BVDU-TP, (E)-5-(2-Bromovinyl)-2′-deoxyuridine-5′-triphosphate, reference compound] |  |  |  |  |  |  | 0.89 ± 0.4 µM | 3.6 ± 0.7 µM | 1.9 ± 0.9 µM | 0.49 ± 0.09 µM | 21 ± 10 µM | 26 ± 4 µM | 
Nc1ccn([C@H]2CC[C@@H](COP(=O)(O)OP(=O)(O)OP(=O)(O)O)O2)c(=O)n1 [ddCTP, reference compound] |  |  |  |  |  |  |  |  |  |  |  |  | IC50 ([1]; IC50 HIV-1 RT Poly rA.dT ([3H]dTTP)): > 20 µM; IC50 ([1]; IC50 HIV-1 RT Poly rC.dG ([3H]dGTP)): > 20 µM; IC50 ([1]; IC50 HIV-1 RT Poly rI.dC ([3H]dCTP)): 3.1 ± 2.2 µM; IC50 ([1]; IC50 HIV-1 RT Poly rU.dA ([3H]dATP)): > 20 µM
O=C(O)C(OCCCCn1cc(F)c(=O)[nH]c1=O)P(=O)(O)O (stereo not shown) [Compound 6j, 2-(4-(5-Fluoro-2,4-dioxo-3,4-dihydropyrimidin-1(2H)-yl)butoxy)-2-phosphonoacetic acid] | 263 ± 69 µM | 9.4 ± 4.1 µM | 6.7 ± 4.6 µM | 4.1 ± 0.9 µM | 72 ± 52 µM | 306 ± 3 µM |  |  |  |  |  |  | 
Nc1nc2c(ncn2[C@H]2CC[C@@H](COP(=O)(O)OP(=O)(O)OP(=O)(O)O)O2)c(=O)[nH]1 [ddGTP, reference compound] |  |  |  |  |  |  |  |  |  |  |  |  | IC50 [1, 20]: > 20 µM; IC50 [1, 21]: 0.26 ± 0.17 µM; IC50 [1, 22]: > 20 µM; IC50 [1, 23]: > 20 µM
Nc1ncnc2c1ncn2C/C=C\COC(C(=O)O)P(=O)(O)O (stereo not drawn) [Compound 6k, 2-Cis-(4-(6-amino-9H-purin-9-yl)but-2-enyloxy)-2-phosphonoacetic acid] |  |  |  |  |  |  | 404 ± 30 µM | 5.5 ± 2.1 µM | 2.7 ± 2 µM | 3.3 ± 0.4 µM | ≥ 500 µM | 454 ± 28 µM | IC50 [1, 14]: 404 ± 30 µM; IC50 [1, 15]: > 500 µM; IC50 [1, 16]: > 500 µM; IC50 [1, 17]: 40 ± 8 µM; IC50 [1, 19]: 531 ± 154 µM; IC50 [7]: ≥ 2500 µM; IC50 [8]: 630 ± 37 µM
Cc1cn(C[C@H]2CCC[C@H]2COC(C(=O)O)P(=O)(O)O)c(=O)[nH]c1=O (relative stereo) [Compound 6a] | ≥ 500 µM | 40 ± 25 µM | 14 ± 14 µM | 73 ± 1 µM | 165 ± 100 µM | > 500 µM |  |  |  |  |  |  | 
Cc1cn(Cc2cn(CCOC(C(=O)O)P(=O)(O)O)nn2)c(=O)[nH]c1=O (stereo not shown) [Compound 6f, 2-(2-(4-((5-methyl-2,4-dioxo-3,4-dihydropyrimidin-1(2H)-yl)methyl)-1H-1,2,3-triazol-1-yl)ethoxy)-2-phosphonoacetic acid] |  |  |  |  |  |  | > 500 µM | 38 ± 6 µM | 25 ± 21 µM | 24 ± 4 µM | 332 ± 28 µM | 361 ± 160 µM | 
O=C(O)C(OC/C=C\Cn1cc(F)c(=O)[nH]c1=O)P(=O)(O)O (stereo not drawn) [Compound 6i, 2-Cis-(4-(5-fluoro-2,4-dioxo-3,4-dihydropyrimidin-1(2H)-yl)but-2-enyloxy)-2-phosphonoacetic acid] |  |  |  |  |  |  | > 500 µM | 30 ± 16 µM | 24 ± 1 µM | 27 ± 2 µM | 325 ± 4 µM | > 500 µM | 
Nc1ncnc2c1ncn2[C@H]1CC[C@@H](COP(=O)(O)OP(=O)(O)OP(=O)(O)O)O1 [ddATP, reference compound] |  |  |  |  |  |  |  |  |  |  |  |  | IC50 [1, 14]: > 20 µM; IC50 [1, 15]: > 20 µM; IC50 [1, 16]: > 20 µM; IC50 [1, 17]: 0.46 ± 0.12 µM
Cc1cn([C@H]2CC[C@@H](COP(=O)(O)OP(=O)(O)OP(=O)(O)O)O2)c(=O)[nH]c1=O [ddTTP, reference compound] |  |  |  |  |  |  |  |  |  |  |  |  | IC50 [1, 20]: 0.05 ± 0.01 µM; IC50 [1, 21]: > 20 µM; IC50 [1, 22]: > 20 µM; IC50 [1, 23]: > 20 µM
Cc1cn(Cc2ccccc2COC(C(=O)O)P(=O)(O)O)c(=O)[nH]c1=O (stereo not shown) [Compound 6d, 2-(2-((2,4-Dioxo-5-methyl-pyrimidin-1-yl)methyl)benzyloxy)-2-phosphonoacetic acid] |  |  |  |  |  |  | 131 ± 86 µM |  | 7.5 ± 5 µM | 2.9 ± 0.7 µM | 75 ± 18 µM | 76 ± 30 µM | superior activity against HCMV DNA polymerase compared to thymine-α-CNP [2]: ~ 3 fold; more active against HSV-1 DNA polymerase than thymine-α-CNP ([3]; ratio vs thymine-α-CNP): ~ 3 fold; more active against VZV DNA polymerase than thymine-α-CNP ([4]; ratio vs thymine-α-CNP): 13 fold
Cc1cn(CCCCOC(C(=O)O)P(=O)(O)O)c(=O)[nH]c1=O (stereo not shown) [Compound 6h, 2-(4-(2,4-Dioxo-5-methyl-pyrimidin-1-yl)butyloxy)-2-phosphonoacetic acid] |  |  |  |  |  |  | 145 ± 106 µM |  | 45 ± 27 µM | 27 ± 12 µM | 301 ± 51 µM | 450 ± 105 µM | 
Cc1cn(C[C@H]2CC=CC[C@H]2COC(C(=O)O)P(=O)(O)O)c(=O)[nH]c1=O (relative stereo) [Compound 6c] | 425 ± 106 µM | 3 ± 0.5 µM | 14 ± 3 µM | 8.5 ± 2.1 µM | 48 ± 36 µM | > 500 µM |  |  |  |  |  |  | superior activity against HCMV DNA polymerase compared to thymine-α-CNP [2]: 8- to 13 fold
